# Reference: publication PMC10148624, “Discovery of diarylpyrimidine derivatives bearing piperazine sulfonyl as potent HIV-1 nonnucleoside reverse transcriptase inhibitors” (Communications Chemistry, 2023)
# Where two headings read alike, the source gives them in different places. Marks after values point to notes of the source that are not given here.
# Experiments:
# [1] = tested on: HIV-1 K103N/Y181C double mutant (RES056); test: microbe, parasite or virus in culture; assay type: cell-based; conditions: for EC50: Human immunodeficiency virus 1, MT4, read-out: EC50 RES056
# Protocol: (§1) The biological results were determined as EC50 (anti-HIV potency), CC50 (cytotoxicity) and SI (selectivity index, the ratio of CC50/EC50). […]
# (§2) compounds were made directly in flat-bottomed 96-well microtiter trays by adding 100 μL medium to the 25 μL stock solution and transferring 25 μL of this solution to another well that contained 100 μL medium using a Biomek 3000 robot (Beckman Instruments, Fullerton, CA). Untreated control HIV- and mock-infected cell samples were included for each sample. HIV-1 WT strain (IIIB), HIV-1 drug-resistant strains including […]
# (§3) (50% cell culture infectious dose) or culture medium was added to either the infected or mock-infected wells of the microtiter tray. Mock-infected cells were used to evaluate the effect of test compounds on uninfected cells in order to assess its cytotoxicity.
# (§4) Exponentially growing MT-4 cells were centrifuged for 5 min at 1000 rpm and the supernatant was discarded.
# (§5) 50 μL volumes were transferred to the microtiter tray wells. Five days after infection, the viability of mock- and HIV-infected cells was examined spectrophotometrically by […]
# (§6) concentration of the test compound that reduced the viability of the mock-infected MT- […]
# HIV-1 WT (IIIB) = test: microbe, parasite or virus in culture; assay type: cell-based; conditions: for EC50: Human immunodeficiency virus 1, IIIB; for SI IIIB: selectivity index, ratio of CC50/EC50
# Protocol: as §1, §2, §3, §4, §5, §6
# [2] = Cytotoxicity in mock-infected MT-4 cells, MTT method; conditions: human
# Protocol: as §1, §2, §3, §4, §5, §6
# HIV-1 E138K = test: microbe, parasite or virus in culture; assay type: cell-based; conditions: Human immunodeficiency virus 1, MT4, read-out: EC50 E138K
# Protocol: as §2, §3, §4, §5, §6
# HIV-1 L100I = test: microbe, parasite or virus in culture; assay type: cell-based; conditions: Human immunodeficiency virus 1, MT4, read-out: EC50 L100I
# Protocol: as §2, §3, §4, §5, §6
# HIV-1 K103N = test: Anti-HIV-1 activity against K103N mutant strain, MTT method in MT-4 cells; assay type: cell-based; conditions: Human immunodeficiency virus 1, MT4, read-out: EC50 K103N
# Description: (§7) According to the anti-HIV-1(WT) results, the promising compounds 18a(1–5), 18b(1–5) and 18c1 were chosen to further evaluate their inhibitory potency against the prevalent HIV-1 mutations, including L100I, K103N, Y181C, Y188L, E138K, and F227L/V106A. […]. page 20:
# (§8) or mock-infected wells of the microtiter tray. Mock-infected cells were used to evaluate
# (§9) supernatant was discarded.
# (§10) Five days after infection,
# (§11) 4 cells by 50%. […]
# HIV-1 Y188L = test: Anti-HIV-1 activity against Y188L mutant strain, MTT method in MT-4 cells; assay type: cell-based; conditions: Human immunodeficiency virus 1, MT4, read-out: EC50 Y188L
# Description: as §7, §8, §9, §10, §11
# HIV-1 F227L/V106A = test: Anti-HIV-1 activity against F227L/V106A mutant strain, MTT method in MT-4 cells; assay type: cell-based; conditions: Human immunodeficiency virus 1, MT4, read-out: EC50 F227L/V106A
# Description: as §7, §8, §9, §10, §11
# HIV-1 Y181C = test: Anti-HIV-1 activity against Y181C mutant strain, MTT method in MT-4 cells; assay type: cell-based; conditions: Human immunodeficiency virus 1, MT4, read-out: EC50 Y181C, MT-4 cells, MTT method, mean ± SD, n ≥ 4
# Description: as §8, §9, §10, §11
# WT HIV-1 RT = biological target: T1, WT HIV-1 RT (Human immunodeficiency virus type 1 group M subtype B, UniProt P04585); test: biochemical
# T1 construct: purchased Roche
# Protocol: Section 4. HIV-1 RT inhibition assays
# A reverse transcriptase (RT) assay kit produced by Roche was selected for the RT inhibition assay.3 All the reagents for performing the RT reaction came with the kit and the ELSIA procedures for RT inhibition assay was carried out following the description in the kit protocol. Briefly, the reaction mixture containing template/primer complex, viral nucleotides (dNTPs) and RT in the incubation buffer with or without inhibitors was incubated for 1 h at 37 °C . After that, the reaction mixture was transferred to a streptavidine coated microtiter plate and incubated for another 1 h at 37 °C to make sure retranscriptional cDNA chain that consisted biotin labeled dNTPs bound to streptavidine. Then unbound dNTPs were removed using washing buffer and anti-DIG-POD working solution was added. After incubation for 1 h at 37 °C , the DIG-labeled dNTPs incorporated in cDNA were bound to the anti-DIG-POD antibody. The unbound
# CYP1A2 = biological target: T2, CYP1A2 (Homo sapiens, UniProt P05177); test: in vitro; conditions: microsomes
# T2 sequence (P05177 1-516): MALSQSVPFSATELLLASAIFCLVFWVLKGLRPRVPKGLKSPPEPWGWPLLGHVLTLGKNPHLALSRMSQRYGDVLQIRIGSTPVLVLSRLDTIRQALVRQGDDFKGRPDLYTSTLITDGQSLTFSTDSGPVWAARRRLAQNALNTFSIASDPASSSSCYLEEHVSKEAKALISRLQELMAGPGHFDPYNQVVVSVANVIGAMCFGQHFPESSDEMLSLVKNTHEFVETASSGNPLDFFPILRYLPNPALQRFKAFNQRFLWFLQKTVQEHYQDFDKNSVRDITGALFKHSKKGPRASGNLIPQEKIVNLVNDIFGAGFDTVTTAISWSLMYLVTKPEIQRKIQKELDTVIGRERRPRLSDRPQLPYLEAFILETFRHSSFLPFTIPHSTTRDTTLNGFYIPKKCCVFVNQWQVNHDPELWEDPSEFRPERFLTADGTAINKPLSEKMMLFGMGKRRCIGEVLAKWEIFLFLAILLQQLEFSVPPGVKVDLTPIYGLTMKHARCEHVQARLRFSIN
# Description: (§12) Section 8. CYP enzyme inhibition assay […]
# (§13) Agilent 1200 LC/MSD (Agilent, USA).
# CYP2C19 = CYP2C19 (Homo sapiens, UniProt P33261); test: CYP enzyme inhibition assay in human liver microsome, CYP2C19; conditions: read-out: IC50 CYP2C19; human liver microsome, probe substrate S-mephenytoin
# CYP2C19, sequence (P33261 whole entry): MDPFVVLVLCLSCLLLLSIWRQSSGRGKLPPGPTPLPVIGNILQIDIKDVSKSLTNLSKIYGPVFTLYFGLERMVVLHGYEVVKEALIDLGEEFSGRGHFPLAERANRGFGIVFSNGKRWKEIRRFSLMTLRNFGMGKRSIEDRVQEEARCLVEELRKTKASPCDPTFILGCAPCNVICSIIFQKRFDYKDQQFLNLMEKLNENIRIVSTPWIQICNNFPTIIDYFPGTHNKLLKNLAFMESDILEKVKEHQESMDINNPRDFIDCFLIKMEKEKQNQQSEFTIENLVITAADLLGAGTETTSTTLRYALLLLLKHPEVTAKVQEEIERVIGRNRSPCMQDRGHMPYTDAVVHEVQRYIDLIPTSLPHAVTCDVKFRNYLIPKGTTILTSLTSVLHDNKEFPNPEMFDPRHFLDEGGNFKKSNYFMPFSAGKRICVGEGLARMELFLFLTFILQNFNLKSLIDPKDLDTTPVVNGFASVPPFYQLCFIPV
# Description: as §12, §13
# CYP2C9 = CYP2C9 (Homo sapiens, UniProt P11712); test: CYP enzyme inhibition assay in human liver microsome, CYP2C9; conditions: read-out: IC50 CYP2C9; human liver microsome, probe substrate diclofenac
# CYP2C9, sequence (P11712 whole entry): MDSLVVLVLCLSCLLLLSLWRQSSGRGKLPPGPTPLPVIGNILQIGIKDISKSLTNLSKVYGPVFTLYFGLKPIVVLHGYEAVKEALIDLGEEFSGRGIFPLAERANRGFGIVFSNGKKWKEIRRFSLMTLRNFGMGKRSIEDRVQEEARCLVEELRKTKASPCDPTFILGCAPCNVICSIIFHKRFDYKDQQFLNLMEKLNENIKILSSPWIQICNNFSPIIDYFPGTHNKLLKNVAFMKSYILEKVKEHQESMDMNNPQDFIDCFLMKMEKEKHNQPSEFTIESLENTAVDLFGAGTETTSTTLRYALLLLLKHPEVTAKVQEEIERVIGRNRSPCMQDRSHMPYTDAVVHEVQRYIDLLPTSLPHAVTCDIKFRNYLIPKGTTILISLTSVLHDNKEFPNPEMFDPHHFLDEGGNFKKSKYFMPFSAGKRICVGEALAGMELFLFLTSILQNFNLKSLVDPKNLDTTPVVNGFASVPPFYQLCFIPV
# Description: as §12, §13
# CYP3A4 = CYP3A4 (Homo sapiens, UniProt P08684); test: in vitro; conditions: microsomes
# CYP3A4, sequence (P08684 whole entry): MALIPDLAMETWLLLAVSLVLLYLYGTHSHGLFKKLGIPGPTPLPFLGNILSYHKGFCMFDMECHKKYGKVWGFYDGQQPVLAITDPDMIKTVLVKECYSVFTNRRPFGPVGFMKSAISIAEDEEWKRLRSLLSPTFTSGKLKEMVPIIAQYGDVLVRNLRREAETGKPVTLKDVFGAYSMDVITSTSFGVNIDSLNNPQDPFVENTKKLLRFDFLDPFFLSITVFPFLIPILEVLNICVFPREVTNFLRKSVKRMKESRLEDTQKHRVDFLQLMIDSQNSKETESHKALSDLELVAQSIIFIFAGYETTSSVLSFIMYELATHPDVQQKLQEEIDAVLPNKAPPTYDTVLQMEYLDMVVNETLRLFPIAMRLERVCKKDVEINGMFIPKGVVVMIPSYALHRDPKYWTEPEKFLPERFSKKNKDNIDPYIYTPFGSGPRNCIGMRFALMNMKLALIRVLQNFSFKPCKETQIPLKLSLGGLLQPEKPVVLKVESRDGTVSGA
# Description: as §12, §13
# CYP2D6 = CYP2D6 (Homo sapiens, UniProt P10635); test: in vitro
# CYP2D6, sequence (P10635 whole entry): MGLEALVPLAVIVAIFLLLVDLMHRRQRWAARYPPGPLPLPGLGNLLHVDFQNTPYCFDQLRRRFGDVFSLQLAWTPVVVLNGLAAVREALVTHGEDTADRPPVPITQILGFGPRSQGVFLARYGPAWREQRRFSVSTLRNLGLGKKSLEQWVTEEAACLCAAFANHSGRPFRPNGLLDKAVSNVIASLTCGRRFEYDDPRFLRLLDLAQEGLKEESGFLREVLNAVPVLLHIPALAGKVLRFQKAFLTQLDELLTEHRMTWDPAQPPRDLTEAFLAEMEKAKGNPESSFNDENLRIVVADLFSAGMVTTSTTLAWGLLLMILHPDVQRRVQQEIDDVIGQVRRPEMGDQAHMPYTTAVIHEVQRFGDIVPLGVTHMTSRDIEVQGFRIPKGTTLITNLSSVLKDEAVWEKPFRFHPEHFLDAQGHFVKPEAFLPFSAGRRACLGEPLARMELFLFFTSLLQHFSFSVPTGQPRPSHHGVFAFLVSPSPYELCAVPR
# Protocol: Fig. S3 Decomposition of the binding free energy (per-residue) into contributions from electrostatic energy, vdw energy, polar solvation energy, and non-polar solvation energy. a K103N-18b1. b […]
# Section 7. Water solubility measurements
# Water solubility was measured in phosphate buffer at pH 7.0 by using an HPLC-UV method.17 Compounds were initially dissolved in DMSO at 10 mg/mL 10 μL of this stock solution was spiked into purified water (1 mL) with the final DMSO concentration being 1%. The mixture was ultrasonic for 2 h at room temperature and restored at room temperature overnight. The saturated solution was filtrated through a filter membrane (pore size = 0.22 μm) and transferred to other Eppendorf tubes for analysis by HPLC-UV. The sample was performed in triplicate. For quantification, a model LC-20AT HPLC-UV (SHIMADZU) system was used with an Inertsil ® ODS-SP-C18 column (150 mm × 4.6 mm, 5 μm) and MeOH/water as eluant. The flow rate was 1.0 mL/min, and injection volume was 20 μL. Aqueous concentration was determined by comparison of the peak area of the saturated solution with a standard curve plotted peak area versus known concentrations, which were prepared by solutions in MeOH at 200, […]
# as §12
# Section 9. Pharmacokinetics studies […]
# approval from the Animal Ethical and Welfare Committee (AEWC). Ten male […]
# Blood samples (200 μL of blood
# Briefly, 50 μL of plasma was […]
# tube, which was centrifuged at 3000g for 10 min. The supernatant layer was collected […]
# Standard curves for 18b1 in […]
# with an internal standard to blank plasma. Then all samples were quantified with an […]
# [3] = at pH 7.0; cited from earlier work
# [4] = design: method as in PMID 24008177; conditions: cited from earlier work
# [5] = MT4, MT-4 cells, MTT method, mean ± SD, n ≥ 4, read-out: EC50 IIIB
Compound,EC50 [1] [nM],EC50 (HIV-1 WT (IIIB); [5]) [nM],CC50 at 5 days [2] [µM],EC50 (HIV-1 E138K) [nM],EC50 (HIV-1 L100I) [nM],EC50 (HIV-1 K103N) [nM],EC50 (HIV-1 Y188L) [nM],EC50 (HIV-1 F227L/V106A) [nM],SI IIIB (HIV-1 WT (IIIB)),EC50 (HIV-1 Y181C) [µM],further results
"O=C1Nc2ccc(Cl)cc2[C@@](C#CC2CC2)(C(F)(F)F)O1 [EFV, efavirenz]",300 ± 190,3.7 ± 0.67,> 6.33,6.5 ± 1.7,53 ± 28,120 ± 24,250 ± 56,260 ± 100,–,–,–
"Cc1cn([C@H]2C[C@H](N=[N+]=[N-])[C@@H](CO)O2)c(=O)[nH]c1=O [AZT, zidovudine]",37 ± 11,–,> 7.48,–,–,–,–,–,>234,–,"SI RES056 ([1]; selectivity index, ratio of CC50/EC50): >200; EC50 (HIV-1 WT (IIIB); MT4, read-out: EC50 IIIB): 32 ± 9.6 nM"
CCS(=O)(=O)N1CCN(c2ccc(Nc3nccc(Oc4c(C)cc(C#N)cc4C)n3)cc2C#N)CC1 [Compound 17b2],> 241000,6.6 ± 1.7,> 241,–,–,–,–,–,">36,585",–,–
"Cc1ccnc2c1NC(=O)c1cccnc1N2C1CC1 [NVP, Nevirapine]",> 15000,190 ± 76,> 15,–,2230 ± 980,6040 ± 2660,> 15000,> 15000,–,7.4 ± 1.78,–
"Cc1cc(C#N)cc(C)c1Oc1nc(Nc2ccc(C#N)cc2)nc(N)c1Br [ETR, etravirine]",76 ± 25,3.3 ± 0.38,–,18 ± 7.2,–,4.3 ± 1,25 ± 7.6,25 ± 7.2,–,0.018 ± 0.0038,"IC50 (WT HIV-1 RT): 1350 ± 350 nM; IC50 at 10 min (CYP1A2): > 10 µM; IC50 (CYP2C19): 496 nM; IC50 (CYP2C9): 277 nM; IC50 at 10 min (CYP3A4): > 10 µM; IC50 at 10 min (CYP2D6; human, microsomes, IC50 CYP2D6): > 10 µM; IC50 (CYP2D6; read-out: IC50 CYP2D6, human liver microsome, probe substrate dextromethorphan): 12 µM; water solubility [3]: <1^e μg/mL; oral bioavailability (F) [4]: undetectable"
